What was measured:
[1] = target: T1, VIM-2 metallo β-lactamase (Pseudomonas aeruginosa, UniProt Q9K2N0); test: β-lactamase enzyme inhibition, VIM-2; assay type: biochemical; conditions: Nitrocefin 100 μM, 486 nm; 15 min at 37° C. preincubation; read-out: IC50 VIM-2 (Class B)
T1 construct: made in house; host or cells: E. coli BL21(DE3)
Summary of the method: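 VIM-2 purified by Q sepharose anion exchange (50 mM Hepes pH 7.5, 0-600 mM NaCl gradient, two runs, >90% purity). Enzyme preincubated with inhibitor 15 min at 37° C; nitrocefin 100 μM final, absorbance at 486 nm followed 10 min. IC50 from initial hydrolysis rates versus inhibitor-free controls.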

OXA-1 β-lactamase = target: T2, OXA-1 β-lactamase (Escherichia coli, UniProt P13661); test: β-lactamase enzyme inhibition, OXA-1; assay type: biochemical; conditions: Nitrocefin 100 μM, 486 nm; 15 min at 37° C. preincubation; read-out: IC50 OXA-1 (Class D)
T2 construct: made in house; host or cells: E. coli BL21(DE3)
T2 sequence (P13661 26-276): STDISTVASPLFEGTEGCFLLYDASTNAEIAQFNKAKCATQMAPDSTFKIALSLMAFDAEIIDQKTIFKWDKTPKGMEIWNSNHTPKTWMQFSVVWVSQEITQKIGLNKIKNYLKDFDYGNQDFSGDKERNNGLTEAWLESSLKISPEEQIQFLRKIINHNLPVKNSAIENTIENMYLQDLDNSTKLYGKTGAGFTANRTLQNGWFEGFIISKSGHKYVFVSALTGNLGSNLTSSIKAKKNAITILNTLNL
Summary of the method: (§1)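 IC50 values reflect inhibitor concentrations halving the initial hydrolysis rate relative to uninhibited wells. Untagged recombinant enzymes were exposed to inhibitor at 37° C for 15 min before substrate addition: 100 μM nitrocefin for OXA-1 and p99 AmpC, imipenem for KPC-2, cefotaxime for SHV-5, each monitored spectrophotometrically for 10 min.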

[2] = system: K. pneumoniae A-1797 expressing KPC-2 and VIM-4; test: broth microdilution MIC, K. pneumoniae KPC-2 and VIM-4; assay type: cell-based; conditions: Fixed Mero (meropenem) 4 μg/mL
Summary of the method: (§2)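 Potentiation MICs were run by CLSI broth microdilution in cation-adjusted Mueller Hinton broth, with test compound serially diluted 2-fold from 32 to 0.25 μg/mL against a fixed 4 μg/mL beta-lactam overlay. Plates were incubated 16-20 hours at 37° C and the MIC was read visually.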

[3] = system: P. aeruginosa Ps296 expressing VIM-2; test: broth microdilution MIC, P. aeruginosa VIM-2; assay type: cell-based; conditions: Fixed Mero (meropenem) 4 μg/mL
Summary of the method: as §2

[4] = system: E. coli ESBL4 expressing CTX-M-15; test: broth microdilution MIC, E. coli CTX-M-15; assay type: cell-based; conditions: Fixed CAZ (ceftazidime) 4 μg/mL
Summary of the method: as §2

p99 AmpC β-lactamase = target: T3, p99 AmpC β-lactamase (Enterobacter cloacae, UniProt P05364); test: β-lactamase enzyme inhibition, p99 AmpC; assay type: biochemical
T3 construct: made in house; host or cells: E. coli BL21(DE3)
T3 sequence (P05364 21-381): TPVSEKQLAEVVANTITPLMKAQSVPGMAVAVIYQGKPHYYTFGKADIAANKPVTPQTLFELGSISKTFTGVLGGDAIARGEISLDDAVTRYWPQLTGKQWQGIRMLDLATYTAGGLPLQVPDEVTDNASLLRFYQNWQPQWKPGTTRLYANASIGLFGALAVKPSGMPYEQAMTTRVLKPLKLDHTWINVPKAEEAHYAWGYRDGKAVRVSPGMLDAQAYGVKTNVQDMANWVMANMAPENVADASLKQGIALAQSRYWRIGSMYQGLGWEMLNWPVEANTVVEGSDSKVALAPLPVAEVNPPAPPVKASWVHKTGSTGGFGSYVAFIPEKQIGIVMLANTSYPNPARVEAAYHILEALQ
Summary of the method: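 Native untagged E. cloacae p99 AmpC was expressed in E. coli BL21(DE3) and purified by cation exchange and gel filtration. Enzyme was preincubated with inhibitor at 37°C for 15 min.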

KPC-2 β-lactamase = target: T4, KPC-2 β-lactamase (Klebsiella pneumoniae, UniProt Q9F663); test: β-lactamase enzyme inhibition, KPC-2; assay type: biochemical; conditions: imipenem substrate, 300 nm; 15 min at 37° C. preincubation; read-out: IC50 KPC-2 (Class A)
T4 construct: made in house; host or cells: E. coli BL21(DE3)
T4 sequence (Q9F663 25-293, looked up): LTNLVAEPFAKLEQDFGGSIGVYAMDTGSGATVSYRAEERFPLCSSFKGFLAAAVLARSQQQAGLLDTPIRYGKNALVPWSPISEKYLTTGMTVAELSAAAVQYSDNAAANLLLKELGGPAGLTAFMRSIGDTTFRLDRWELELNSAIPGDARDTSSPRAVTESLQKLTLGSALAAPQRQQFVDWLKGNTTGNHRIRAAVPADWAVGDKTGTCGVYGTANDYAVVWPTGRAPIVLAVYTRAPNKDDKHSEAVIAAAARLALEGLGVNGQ
Summary of the method: as §1

[5] = system: K. pneumoniae 156319 expressing KPC-3; test: broth microdilution MIC, K. pneumoniae KPC-3; assay type: cell-based; conditions: Fixed Mero (meropenem) 4 μg/mL
Summary of the method: as §2

[6] = system: E. cloacae 144200 expressing Class C P99 AmpC; test: broth microdilution MIC, E. cloacae P99; assay type: cell-based; conditions: Fixed CAZ (ceftazidime) 4 μg/mL
Summary of the method: as §2

SHV-5 β-lactamase = target: T5, SHV-5 β-lactamase (Klebsiella pneumoniae, UniProt P0A3M1); test: β-lactamase enzyme inhibition, SHV-5; assay type: biochemical
T5 construct: made in house; host or cells: E. coli BL21(DE3)
T5 sequence (P0A3M1 22-286): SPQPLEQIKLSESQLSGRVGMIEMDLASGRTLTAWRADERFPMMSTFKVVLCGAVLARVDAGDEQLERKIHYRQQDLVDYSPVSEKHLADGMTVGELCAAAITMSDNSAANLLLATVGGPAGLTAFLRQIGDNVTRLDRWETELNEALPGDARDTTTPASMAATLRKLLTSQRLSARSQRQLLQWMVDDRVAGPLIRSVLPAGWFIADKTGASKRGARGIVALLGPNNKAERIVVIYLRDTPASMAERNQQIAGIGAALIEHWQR
Summary of the method: as §1

[7] = system: S. aureus MSSA-7 producing penicillinase PC-1; test: broth microdilution MIC, S. aureus PC-1; assay type: cell-based; conditions: Fixed Pip (piperacillin) 4 μg/mL
Summary of the method: as §2

Compound	IC50 [1]	IC50 (OXA-1 β-lactamase)	MIC of exemplary compounds in presence of fixed β-lactams, K.P. A-1797 KPC-2 VIM-4 [2]	MIC of exemplary compounds in presence of fixed β-lactams, P. aerug. Ps296 VIM-2 [3]	MIC of exemplary compounds in presence of fixed β-lactams, E. coli ESBL4 CTX-M-15 [4]	IC50 (p99 AmpC β-lactamase)	IC50 (KPC-2 β-lactamase)	MIC of exemplary compounds in presence of fixed β-lactams, K.P. 156319 KPC-3 [5]	MIC of exemplary compounds in presence of fixed β-lactams, E. cl. 144200 p99 AmpC [6]	IC50 (SHV-5 β-lactamase)	MIC of exemplary compounds in presence of fixed β-lactams, S. aureus MSSA-7 PC-1 [7]
COCCOCC(=O)N[C@H]1Cc2cccc(C(=O)O)c2OB1O [Example 27, (R)-2-Hydroxy-3-[2-(2-methoxy-ethoxy)-acetylamino]-3,4-dihydro-2H-benzo[e][1,2]oxaborinine-8-carboxylic acid]	100 to 1000 nM	< 100 nM	B (B represents the MIC in the presence of between 8 and 32 g/mL of a β-lactamase inhibitor)	A (A represents an MIC of the fixed β-lactam antibiotic in the presence of >32 g/mL of a β-lactamase inhibitor)	C (C represents the MIC in the presence of ≤4 g/mL of a β-lactamase inhibitor)	< 100 nM	< 100 nM	C (C represents the MIC in the presence of ≤4 g/mL of a β-lactamase inhibitor)	C (C represents the MIC in the presence of ≤4 g/mL of a β-lactamase inhibitor)	< 100 nM	C (C represents the MIC in the presence of ≤4 g/mL of a β-lactamase inhibitor)
O=C(CCn1cccn1)N[C@H]1Cc2cccc(C(=O)O)c2OB1O [Example 28, (R)-2-Hydroxy-3-(3-pyrazol-1-yl-propionylamino)-3,4-dihydro-2H-benzo[e][1,2]oxaborinine-8-carboxylicacid]	1000 to 10000 nM	< 100 nM	B (B represents the MIC in the presence of between 8 and 32 g/mL of a β-lactamase inhibitor)	B (B represents the MIC in the presence of between 8 and 32 g/mL of a β-lactamase inhibitor)	C (C represents the MIC in the presence of ≤4 g/mL of a β-lactamase inhibitor)	< 100 nM	< 100 nM	C (C represents the MIC in the presence of ≤4 g/mL of a β-lactamase inhibitor)	C (C represents the MIC in the presence of ≤4 g/mL of a β-lactamase inhibitor)	< 100 nM	C (C represents the MIC in the presence of ≤4 g/mL of a β-lactamase inhibitor)
O=C(CCn1ccnc1)N[C@H]1Cc2cccc(C(=O)O)c2OB1O [Example 29, (R)-2-Hydroxy-3-(3-imidazol-1-yl-propionylamino)-3,4-dihydro-2H-benzo[e][1,2]oxaborinine-8-carboxylic acid]	1000 to 10000 nM	< 100 nM	A (A represents an MIC of the fixed β-lactam antibiotic in the presence of >32 g/mL of a β-lactamase inhibitor)	C (C represents the MIC in the presence of ≤4 g/mL of a β-lactamase inhibitor)	C (C represents the MIC in the presence of ≤4 g/mL of a β-lactamase inhibitor)	< 100 nM	< 100 nM	C (C represents the MIC in the presence of ≤4 g/mL of a β-lactamase inhibitor)	C (C represents the MIC in the presence of ≤4 g/mL of a β-lactamase inhibitor)	< 100 nM	C (C represents the MIC in the presence of ≤4 g/mL of a β-lactamase inhibitor)
O=C(CN1CCOC1=O)N[C@H]1Cc2cccc(C(=O)O)c2OB1O [Example 30, (R)-2-Hydroxy-3-[2-(2-oxo-oxazolidin-3-yl)-acetylamino]-3,4-dihydro-2H-benzo[e][1,2]oxaborinine-8-carboxylicacid]	100 to 1000 nM	< 100 nM	C (C represents the MIC in the presence of ≤4 g/mL of a β-lactamase inhibitor)	C (C represents the MIC in the presence of ≤4 g/mL of a β-lactamase inhibitor)	C (C represents the MIC in the presence of ≤4 g/mL of a β-lactamase inhibitor)	< 100 nM	< 100 nM	C (C represents the MIC in the presence of ≤4 g/mL of a β-lactamase inhibitor)	C (C represents the MIC in the presence of ≤4 g/mL of a β-lactamase inhibitor)	< 100 nM	C (C represents the MIC in the presence of ≤4 g/mL of a β-lactamase inhibitor)
O=C(CCc1nccs1)N[C@H]1Cc2cccc(C(=O)O)c2OB1O [Example 31, (R)-2-hydroxy-3-(3-(thiazol-2-yl)propanamido)-3,4-dihydro-2H-benzo[e][1,2]oxaborinine-8-carboxylic acid]	1000 to 10000 nM	< 100 nM	B (B represents the MIC in the presence of between 8 and 32 g/mL of a β-lactamase inhibitor)	C (C represents the MIC in the presence of ≤4 g/mL of a β-lactamase inhibitor)	C (C represents the MIC in the presence of ≤4 g/mL of a β-lactamase inhibitor)	< 100 nM	< 100 nM	C (C represents the MIC in the presence of ≤4 g/mL of a β-lactamase inhibitor)	C (C represents the MIC in the presence of ≤4 g/mL of a β-lactamase inhibitor)	< 100 nM	C (C represents the MIC in the presence of ≤4 g/mL of a β-lactamase inhibitor)
O=C(CCc1cncs1)N[C@H]1Cc2cccc(C(=O)O)c2OB1O [Example 32, (R)-2-hydroxy-3-(3-(thiazol-5-yl)propanamido)-3,4-dihydro-2H-benzo[e][1,2]oxaborinine-8-carboxylicacid]	1000 to 10000 nM	< 100 nM	B (B represents the MIC in the presence of between 8 and 32 g/mL of a β-lactamase inhibitor)	C (C represents the MIC in the presence of ≤4 g/mL of a β-lactamase inhibitor)	C (C represents the MIC in the presence of ≤4 g/mL of a β-lactamase inhibitor)	< 100 nM	< 100 nM	C (C represents the MIC in the presence of ≤4 g/mL of a β-lactamase inhibitor)	C (C represents the MIC in the presence of ≤4 g/mL of a β-lactamase inhibitor)	< 100 nM	C (C represents the MIC in the presence of ≤4 g/mL of a β-lactamase inhibitor)
